Results from US8729264B2, “Agent for prevention and/or treatment of skin diseases” (Kyowa Hakko Kirin Co., Ltd., priority 2007, dated 2014).

Test system: dinitrofluorobenzene-induced ear edema
Assay: Suppressive action on dinitrofluorobenzene-induced ear edema reaction in mouse
Type: in vivo, BALB/c mice (printed BALE/c)
Conditions: topical, test compound 1% (w/v) in acetone applied to front and back of auricle 1 hr before and 3 hr after induction, auricle thickness 24 hr after induction, female mice, read-out: ear edema suppressive rate (%)
Procedure: 5-Week to 6-week old BALE/c mice (female, supplied by CHARLES RIVER LABORATORIES JAPAN, INC) were purchased and, after quarantine and habituation, those showing satisfactory body weight increase and free of abnormal appearance were used to start the test from 7 weeks of age. The animals were housed and bred in plastic cages (6 mice per cage) in a breeding chamber set at room temperature 19-25° C., humidity 30-70%, 12 hr illumination per day (7 a.m.-7 p.m.), with free access to a commercially available solid feed and water.
One day before the test, the abdomen was shaved, and a solution of dinitrofluorobenzene (manufactured by Nacalai Tesque) in acetone (manufactured by Wako Pure Chemical Industries, Ltd.) {concentration 0.5% [weight (w)/volume (v) %]} was applied to the shaved part of BALE/c mice by 100 μL for sensitization. On day 5 after sensitization, a dinitrofluorobenzene-acetone solution [concentration 0.2% (w/v %)] was applied to the front and the back of the auricle by 10 μL each (total 20 μL) to induce reaction. A test compound dissolved in acetone to the concentration of 1% (w/v %) was applied to the front and the back of the auricle 1 hr before and 3 hr after the induction of reaction each by 10 μL or 40 μL (total 20 μL or 80 μL). After the application, the applied part was air-dried by a dryer.
A group administered with the test compound by coating was taken as a test compound administration group, and a group administered with acetone (solvent) by coating instead of the test compound was taken as a solvent administration group. In addition, a group free of sensitization and induction of reaction and administered with acetone by coating instead of the test compound was taken as a normal group. The thickness of the auricle was measured immediately before induction of reaction and 24 hr after the induction with a dial thickness gauge (manufactured by OZAKI MFG. CO., LTD., G-1A), and the difference between them was taken as ear edema. The ear edema suppressive rate (%) was calculated according to the following formula.

SMILES | inhibition in vivo at 1 %
CS(=O)(=O)NC(=O)c1cnn2c(NCc3ccccc3)c(C(=O)N3CCC(c4ccccc4)CC3)cnc12 [a-1, N-[7-Benzylamino-6-(4-phenylpiperidine-1-carbonyl)pyrazolo[1,5-a]pyrimidine-3-carbonyl]methanesulfonamide] | 20%
CCS(=O)(=O)NC(=O)c1cnn2c(Nc3ccc(F)cc3C)c(C(=O)N3CCC(c4ccccc4)CC3)cnc12 [a-57, N-[7-(4-Fluoro-2-methylphenylamino)-6-(4-phenylpiperidine-1-carbonyl)pyrazolo[1,5-a]pyrimidine-3-carbonyl]ethanesulfonamide] | 35%
CCS(=O)(=O)NC(=O)c1cnn2c(Nc3cc(C)ccc3F)c(C(=O)N3CCC(c4ccccc4)CC3)cnc12 [a-59, N-[7-(2-Fluoro-5-methylphenylamino)-6-(4-phenylpiperidine-1-carbonyl)pyrazolo[1,5-a]pyrimidine-3-carbonyl]ethanesulfonamide] | 6%
CCS(=O)(=O)NC(=O)c1cnn2c(Nc3cc(C)ccc3F)c(C(=O)N3CCC(c4ccc(F)cc4)CC3)cnc12 [a-81, N-{7-(2-Fluoro-5-methylphenylamino)-6-[4-(4-fluorophenyl)piperidine-1-carbonyl]pyrazolo[1,5-a]pyrimidine-3-carbonyl}ethanesulfonamide] | 25%
CCS(=O)(=O)NC(=O)c1cnn2c(Nc3ccc(F)cc3C)c(C(=O)N3CCC(c4ccc(F)cc4)CC3)cnc12 [a-84, N-{7-(4-Fluoro-2-methylphenylamino)-6-[4-(4-fluorophenyl)piperidine-1-carbonyl]pyrazolo[1,5-a]pyrimidine-3-carbonyl}ethanesulfonamide] | 25%
CS(=O)(=O)NC(=O)c1cnn2c(NCc3ccccc3)c(C(=O)N3CCC(F)(c4ccccc4)CC3)cnc12 [a-96, N-[7-Benzylamino-6-(4-fluoro-4-phenylpiperidine-1-carbonyl)pyrazolo[1,5-a]pyrimidine-3-carbonyl]methanesulfonamide] | 10%
O=C(NS(=O)(=O)C1CC1)c1cnn2c(NCc3ccccc3)c(C(=O)N3CCC4(CC3)COc3ccccc34)cnc12 [a-126, N-[7-Benzylamino-6-(2H-spiro[benzofuran-3,4′-piperidine]-1′-ylcarbonyl)pyrazolo[1,5-a]pyrimidine-3-carbonyl]cyclopropanesulfonamide] | 10%
CCS(=O)(=O)NC(=O)c1cnn2c(Nc3cc(C)ccc3C)c(C(=O)N3CCC4(CC3)COc3cc(F)ccc34)cnc12 [a-137, N-[7-(2,5-Dimethylphenylamino)-6-(6-fluoro-2H-spiro[benzofuran-3,4′-piperidine]-1′-ylcarbonyl)pyrazolo[1,5-a]pyrimidine-3-carbonyl]ethanesulfonamide] | 5%
